{
  "source": "patent US12427122B2",
  "about": "“Method of making transdermal amphetamine composition with low levels of carbamate” (Noven Pharmaceuticals, Inc., priority 2021, dated 2025)",
  "assay": "Stability of the amphetacarbamate moiety in solution",
  "type": "physicochemical",
  "description": "As noted above, the existence or identity of amphetamine carbamate or amphetacarbamate per se were not known. Rather, amphetamine carbamate was identified and characterized by analyzing crystals isolated from drug-containing polymer matrices of transdermal amphetamine compositions, and amphetacarbamate was identified the work done to identify and characterize amphetamine carbamate. In addition to the inventions described herein pertaining to transdermal amphetamine compositions and amphetamine transdermal delivery systems, methods for detecting and quantifying amphetamine carbamate had to be developed. […] Thus, for example, typical HPLC assays could not be used.",
  "data": [
    {"substance": "(S)-1-phenylpropan-2-ammonium-(S)-(1-phenylpropan-2-yl)carbamate [amphetamine carbamate]", "values": [
      {"measurement": "stability of amphetacarbamate moiety", "result": "labile and readily converts to amphetamine"}
    ]}
  ]
}
